Counter-ions that a name gives are not always drawn. Like-named read-outs stand apart in the source and are kept apart here.
Columns and labels:
Assay type in all cases: cell-based
[1] = target: T1, human NaPi-IIb (Homo sapiens, UniProt O95436); test: Inhibitory effect on 33PO4 uptake into human NaPi-IIb-expressing CHO cells
T1 construct: expressed in transfected cells
T1 sequence (O95436 1-690): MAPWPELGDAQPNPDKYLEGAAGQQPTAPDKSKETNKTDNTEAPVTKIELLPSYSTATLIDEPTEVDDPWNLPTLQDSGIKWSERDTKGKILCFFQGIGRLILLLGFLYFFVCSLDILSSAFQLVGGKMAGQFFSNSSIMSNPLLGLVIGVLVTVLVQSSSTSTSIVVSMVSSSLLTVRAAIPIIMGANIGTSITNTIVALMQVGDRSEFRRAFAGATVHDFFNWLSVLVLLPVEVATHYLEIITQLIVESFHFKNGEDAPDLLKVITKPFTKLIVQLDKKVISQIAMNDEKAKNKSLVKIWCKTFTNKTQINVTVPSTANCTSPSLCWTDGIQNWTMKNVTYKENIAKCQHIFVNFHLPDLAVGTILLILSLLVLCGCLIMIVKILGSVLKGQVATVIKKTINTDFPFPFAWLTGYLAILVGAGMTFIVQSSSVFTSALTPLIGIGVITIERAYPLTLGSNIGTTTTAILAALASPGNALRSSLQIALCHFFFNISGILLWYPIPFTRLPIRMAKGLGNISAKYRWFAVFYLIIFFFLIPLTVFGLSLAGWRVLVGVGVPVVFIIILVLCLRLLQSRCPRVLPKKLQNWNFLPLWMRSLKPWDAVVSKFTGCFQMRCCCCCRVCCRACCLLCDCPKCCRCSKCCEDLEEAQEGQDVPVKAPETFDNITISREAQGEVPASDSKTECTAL
Method in brief: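 Stable human NaPi-IIb CHO line (G418-selected), plated and cultured overnight; ³³PO4 added in buffer A and uptake run at room temperature. Cells washed with ice-cold buffer A, then uptake counted by liquid scintillation.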

[2] = target: T2, human PiT-1 (Homo sapiens, UniProt Q8WUM9); test: Inhibitory effect on 33PO4 uptake into human PiT-1-expressing CHO cells; settings: compound 0.24, 1.2, 6 or 30 μM, pH 6.5, read-out: IC50 against 33PO4 uptake into human PiT-1-expressing cells
T2 construct: expressed in transfected cells; host or cells: CHO cells
T2 sequence (Q8WUM9 1-679): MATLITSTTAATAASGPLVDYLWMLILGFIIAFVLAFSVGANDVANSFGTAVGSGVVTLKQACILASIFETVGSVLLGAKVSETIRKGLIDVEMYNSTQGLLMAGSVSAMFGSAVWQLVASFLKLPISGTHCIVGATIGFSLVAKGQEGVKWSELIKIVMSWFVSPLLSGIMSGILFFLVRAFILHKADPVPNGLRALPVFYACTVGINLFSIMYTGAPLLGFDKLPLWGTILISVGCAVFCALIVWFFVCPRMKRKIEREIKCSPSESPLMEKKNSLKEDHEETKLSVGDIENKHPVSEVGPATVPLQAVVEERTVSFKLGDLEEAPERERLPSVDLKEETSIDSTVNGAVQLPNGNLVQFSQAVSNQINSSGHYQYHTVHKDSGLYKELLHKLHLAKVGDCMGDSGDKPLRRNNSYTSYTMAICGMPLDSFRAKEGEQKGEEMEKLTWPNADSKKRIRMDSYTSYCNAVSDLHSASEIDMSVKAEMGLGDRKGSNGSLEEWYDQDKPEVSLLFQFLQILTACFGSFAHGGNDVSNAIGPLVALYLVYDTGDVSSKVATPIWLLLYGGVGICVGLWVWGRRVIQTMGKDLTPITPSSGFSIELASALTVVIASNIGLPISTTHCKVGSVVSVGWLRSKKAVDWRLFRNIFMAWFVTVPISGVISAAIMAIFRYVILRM
Description: Test Example 3: Inhibitory Effect on ^33PO4 Uptake into Human PiT-1-Expressing Cell
(§1) CHO cells were transfected with human PiT-1 expression plasmids or empty vectors to prepare human PiT-1-expressing cells and empty vector-expressing cells. The human PiT-1-expressing cells or the empty vector-expressing cells were inoculated to a 96-well plate and incubated overnight in a CO2 incubator. […] After a given time, a 1/20 volume of buffer A containing ^33PO4 was added thereto and reacted at room temperature. After washing with ice-cold buffer A, a liquid scintillator was added to each reaction mixture, and the amount of ^33PO4 uptake was measured using TopCount. The rate of inhibition was determined according to the following expression: Rate (%) of inhibition=(1−(Amount of ^33PO4 uptake in the compound-supplemented well containing the human PiT-1-expressing cells−Amount of ^33PO4 uptake in the compound-supplemented well containing the empty vector-expressing cells)/(Amount of ^33PO4 uptake in the DMSO-supplemented well containing the human PiT-1-expressing cells −Amount of ^33PO4 uptake in the DMSO-supplemented well containing the empty vector-expressing cells))×100

[3] = target: T3, human PiT-2 (Homo sapiens, UniProt Q08357); test: Inhibitory effect on 33PO4 uptake into human PiT-2-expressing CHO cells; settings: pH 6.5, read-out: IC50 against 33PO4 uptake into human PiT-2-expressing cells
T3 construct: expressed in transfected cells; host or cells: CHO cells
T3 sequence (Q08357 1-652): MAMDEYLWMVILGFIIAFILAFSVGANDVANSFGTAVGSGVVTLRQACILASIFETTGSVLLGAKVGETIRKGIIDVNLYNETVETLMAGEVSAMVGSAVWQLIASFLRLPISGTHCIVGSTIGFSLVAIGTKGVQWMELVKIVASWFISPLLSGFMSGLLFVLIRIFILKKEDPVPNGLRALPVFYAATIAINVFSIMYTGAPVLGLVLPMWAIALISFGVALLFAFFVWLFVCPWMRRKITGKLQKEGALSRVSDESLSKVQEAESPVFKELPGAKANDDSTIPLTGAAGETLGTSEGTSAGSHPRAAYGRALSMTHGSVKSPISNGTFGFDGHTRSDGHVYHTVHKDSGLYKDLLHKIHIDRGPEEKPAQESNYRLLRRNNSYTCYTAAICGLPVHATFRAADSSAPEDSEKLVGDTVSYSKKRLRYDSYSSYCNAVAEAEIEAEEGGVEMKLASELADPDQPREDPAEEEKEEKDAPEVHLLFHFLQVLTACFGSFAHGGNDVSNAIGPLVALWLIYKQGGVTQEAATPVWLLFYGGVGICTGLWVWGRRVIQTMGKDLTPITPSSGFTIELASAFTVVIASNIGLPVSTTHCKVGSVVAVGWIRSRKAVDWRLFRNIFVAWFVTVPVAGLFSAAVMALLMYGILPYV
Description: Test Example 4: Inhibitory Effect on ^33PO4 Uptake into Human PiT-2-Expressing Cell
as §1, with “PiT-2” for “PiT-1”, “PiT-2-expressing” for “PiT-1-expressing”

Row | Compound | IC50 ([1]; read-out: IC50) [µM] | IC50 [2] [µM] | IC50 [3] [µM] | IC50 ([1]; read-out: IC50 against 33PO4 uptake into human NaPi-IIb-expressing cells) [µM]
1 | COCCN(C)CCOc1ccc(CN2C(=O)C(C(=O)Nc3ccc(C(F)(F)F)cc3-c3cc(C(F)(F)F)ncn3)=C(O)C3(CCC3)N2C)c(F)c1F [Example 13, 6-[[2,3-Difluoro-4-[2-[2-methoxyethyl(methyl)amino]ethoxy]phenyl]methyl]-9-hydroxy-5-methyl-7-oxo-N-[4-(trifluoromethyl)-2-[6-(trifluoromethyl)pyrimidin-4-yl]phenyl]-5,6-diazaspiro[3.5]non-8-ene-8-carboxamide] | 7.3 | 1.9 | 2.7 | 
2 | C[C@]12CCCN1N(Cc1ccc(CN3CCOCC3)c(F)c1F)C(=O)C(C(=O)Nc1ccc(C(F)(F)F)cc1-c1ccc(C(F)(F)F)nc1)=C2O [Example 164, (4aR)-1-[[2,3-Difluoro-4-(morpholin-4-ylmethyl)phenyl]methyl]-4-hydroxy-4a-methyl-2-oxo-N-[4-(trifluoromethyl)-2-[6-(trifluoromethyl)pyridin-3-yl]phenyl]-6,7-dihydro-5H-pyrrolo [1,2-b]pyridazine-3-carboxamide; hydrochloride] | 5 | 4.1 | 4.1 | 
3 | CN1[C@@H](C(C)(C)C)C(O)=C(C(=O)Nc2ccc(C(F)(F)F)cc2-c2cc(C(F)(F)F)ncn2)C(=O)N1Cc1ccc(OCCN2CCOCC2)c(F)c1F [Example 264, (3S)-3-tert-Butyl-1-[[2,3-difluoro-4-(2-morpholin-4-ylethoxy)phenyl]methyl]-4-hydroxy-2-methyl-6-oxo-N-[4-(trifluoromethyl)-2-[6-(trifluoromethyl)pyrimidin-4-yl]phenyl]-3H-pyridazine-5-carboxamide] | 19.4 | 4.6 | 3.8 | 
4 | C[C@]12CCCN1N(Cc1cccc(Cl)c1F)C(=O)C(C(=O)Nc1cc(F)c(Br)c(F)c1)=C2O [Example 196, (4aR)-N-(4-Bromo-3,5-difluorophenyl)-1-[(3-chloro-2-fluorophenyl)methyl]-4-hydroxy-4a-methyl-2-oxo-6,7-dihydro-5H-pyrrolo[1,2-b]pyridazine-3-carboxamide] | 2.8 | 5.6 | 6.2 | 
5 | CSc1ccc(-c2cc(Cl)ccc2NC(=O)C2=C(O)[C@H](C(C)(C)C)N(C)N(Cc3ccc(OCCN4CCOCC4)c(F)c3F)C2=O)cn1 [Example 269, (3S)-3-tert-Butyl-N-[4-chloro-2-(6-methylsulfanyl-pyridin-3-yl)phenyl]-1-[[2,3-difluoro-4-(2-morpholin-4-ylethoxy)phenyl]methyl]-4-hydroxy-2-methyl-6-oxo-3H-pyridazine-5-carboxamide] | 4.5 | 7.9 | 10.6 | 

Second part, the compound after the results:

Row | IC50 ([1]; read-out: IC50) [µM] | IC50 [2] [µM] | IC50 [3] [µM] | IC50 ([1]; read-out: IC50 against 33PO4 uptake into human NaPi-IIb-expressing cells) [µM] | Compound
6 | 14.6 | 3.4 | 3.6 |  | Cc1c(C#N)ncnc1-c1cc(C(F)(F)F)ccc1NC(=O)C1=C(O)[C@H](C(C)(C)C)N(C)N(Cc2ccc(OCCN3CCOCC3)c(F)c2F)C1=O [Example 270, (3S)-3-tert-Butyl-N-[2-(6-cyano-5-methylpyrimidin-4-yl)-4-(trifluoromethyl)phenyl]-1-[[2,3-difluoro-4-(2-morpholin-4-yl-ethoxy)phenyl]methyl]-4-hydroxy-2-methyl-6-oxo-3H-pyridazine-5-carboxamide]
7 |  | 0.9 | 1.4 | 5.8 | COCCN(C)CCOc1ccc(CN2C(=O)C(C(=O)Nc3ccc(C(F)(F)F)cc3-c3ncnc(C(F)(F)F)c3C)=C(O)C3(CCCC3)N2C)c(F)c1F [Example 416]
8 | 7.7 | 1.2 | 1.4 |  | COC[C@@H]1CCCN1CCOc1ccc(CN2C(=O)C(C(=O)Nc3ccc(C(F)(F)F)cc3-c3cc(C(F)(F)F)ncn3)=C(O)C3(CCC3)N2C)c(F)c1F [Example 345, 6-[[2,3-Difluoro-4-[2-[(2S)-2-(methoxymethyl)pyrrolidin-1-yl]ethoxy]phenyl]methyl]-9-hydroxy-5-methyl-7-oxo-N-[4-(trifluoromethyl)-2-[6-(trifluoromethyl)pyrimidin-4-yl]phenyl]-5,6-diazaspiro[3.5]non-8-ene-8-carboxamide]

— US9499553B2 (CHUGAI SEIYAKU KABUSHIKI KAISHA, priority 2013, dated 2016)
